Substitutions are numbered along the chain they refer to. The source made the active and inactive calls. The rule behind the calls is not given here.
How the values were obtained:
[1] = test system: MOLM-14; experiment: Antiproliferative activity against human MOLM14 cells after 3 days by CellTiter-Glo luminescence assay; type: functional, cell-based; conditions: for IC50: MOLM-14, 72 h
[2] = test system: A2058; experiment: Antiproliferative activity against human A2058 cells harboring BRAF V600E mutation at up to 2 uM after 3 days by CellTiter-Glo luminescence assay; type: functional, cell-based
[3] = test system: T1, Tyrosine-protein phosphatase non-receptor type 11 (Homo sapiens), Q06124 [F285S]; experiment: Inhibition of SHP2 F285S mutant (1 to 525 residues) (unknown origin) expressed in Escherichia coli BL21(DE3) at up to 2 uM using DIFMUP as substrate preincubated for 30 mins followed by substrate addition by fluorescence assay
T1 sequence (whole entry): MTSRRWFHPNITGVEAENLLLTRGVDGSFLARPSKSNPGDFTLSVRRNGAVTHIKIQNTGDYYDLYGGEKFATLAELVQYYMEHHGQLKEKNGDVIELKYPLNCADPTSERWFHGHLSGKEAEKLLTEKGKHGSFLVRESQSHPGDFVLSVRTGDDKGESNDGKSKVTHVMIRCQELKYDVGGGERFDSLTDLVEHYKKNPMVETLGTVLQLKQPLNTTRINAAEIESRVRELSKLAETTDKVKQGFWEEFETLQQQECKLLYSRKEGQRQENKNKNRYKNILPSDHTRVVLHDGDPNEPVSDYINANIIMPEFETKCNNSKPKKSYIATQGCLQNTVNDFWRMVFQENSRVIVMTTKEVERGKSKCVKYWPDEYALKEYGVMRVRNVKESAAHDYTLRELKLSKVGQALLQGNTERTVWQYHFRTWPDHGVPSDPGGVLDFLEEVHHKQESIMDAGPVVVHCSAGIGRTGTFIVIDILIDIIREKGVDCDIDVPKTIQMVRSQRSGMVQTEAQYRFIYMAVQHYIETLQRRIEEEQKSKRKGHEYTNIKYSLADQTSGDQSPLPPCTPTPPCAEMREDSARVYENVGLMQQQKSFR

[4] = target: T2, Tyrosine-protein phosphatase non-receptor type 11 (Homo sapiens) (UniProt Q06124); experiment: Inhibition of SHP2 in human MOLM14 cells assessed as reduction in phospho-Erk levels at up to 400 uM after 2 hrs by Western blot analysis; type: cell-based
T2 sequence (whole entry): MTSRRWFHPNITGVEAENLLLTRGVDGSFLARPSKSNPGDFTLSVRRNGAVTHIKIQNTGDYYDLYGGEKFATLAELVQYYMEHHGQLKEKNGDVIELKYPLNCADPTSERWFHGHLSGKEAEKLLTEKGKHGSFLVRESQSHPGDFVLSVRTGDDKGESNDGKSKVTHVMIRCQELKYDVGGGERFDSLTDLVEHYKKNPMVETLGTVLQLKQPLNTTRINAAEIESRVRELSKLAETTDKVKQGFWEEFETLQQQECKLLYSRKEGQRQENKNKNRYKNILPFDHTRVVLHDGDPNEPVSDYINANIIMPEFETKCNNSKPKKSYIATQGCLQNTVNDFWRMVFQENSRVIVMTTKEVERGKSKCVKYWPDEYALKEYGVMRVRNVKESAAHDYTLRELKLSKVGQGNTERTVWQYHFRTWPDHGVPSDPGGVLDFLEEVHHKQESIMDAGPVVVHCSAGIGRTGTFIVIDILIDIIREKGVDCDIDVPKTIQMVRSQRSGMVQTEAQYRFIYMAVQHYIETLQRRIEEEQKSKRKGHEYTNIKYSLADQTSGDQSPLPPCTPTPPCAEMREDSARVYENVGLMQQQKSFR

[5] = target: T2, Tyrosine-protein phosphatase non-receptor type 11 (Homo sapiens); experiment: Inhibition of wild-type SHP2 (1 to 525 residues) (unknown origin) expressed in Escherichia coli BL21(DE3) using DIFMUP as substrate preincubated for 30 mins followed by substrate addition by fluorescence assay
[6] = test system: T3, Tyrosine-protein phosphatase non-receptor type 11 (Homo sapiens), Q06124 [F285S,T253M,Q257L]; experiment: Inhibition of SHP2 F285S/T253M/Q257L mutant (1 to 525 residues) (unknown origin) expressed in Escherichia coli BL21(DE3) using DIFMUP as substrate preincubated for 30 mins followed by substrate addition by fluorescence assay
T3 sequence (whole entry): T1 sequence (whole entry) with T253M, Q257L

[7] = target: T2, Tyrosine-protein phosphatase non-receptor type 11 (Homo sapiens); experiment: Inhibition of SHP2 PTP domain (1 to 525 residues) (unknown origin) expressed in Escherichia coli BL21(DE3) using DIFMUP as substrate preincubated for 30 mins followed by substrate addition by fluorescence assay
[8] = test system: T1, Tyrosine-protein phosphatase non-receptor type 11 (Homo sapiens), Q06124 [F285S]; experiment: (§1) Inhibition of SHP2 F285S mutant (1 to 525 residues) (unknown origin) expressed in Escherichia coli BL21(DE3) using DIFMUP as substrate preincubated for 30 mins followed by substrate addition by fluorescence assay
[9] = target: Tyrosine-protein phosphatase non-receptor type 11 (Homo sapiens, UniProt Q06124, F285S); experiment: as §1

SMILES | IC50 [1] [µM] | inhibition [3] | Activity [2] | other results
CC1(N)CCN(c2cnc(-c3cccc(Cl)c3Cl)c(N)n2)CC1 | 0.9 |  | inactive | 
NCc1ccc2c(c1)sc1nc(O)c(Cc3ccccc3)c(=O)n12 |  |  | inactive | 

Continued, in another order:

IC50 [1] [µM] | inhibition [3] | SMILES | Activity [2] | other results
 | inactive | COc1ccc2c(c1)sc1nc(Cl)c(Cc3ccccc3)c(=O)n12 | inactive | Activity [1]: inactive
85 | 60% | O=c1c(Cc2ccccc2)c(O)nc2sc3cc(Cl)ccc3n12 | inactive | inhibition [4]: inactive; inhibition [5]: Active
 | 40% | COc1ccc2c(c1)sc1nc(O)c(Cc3ccccc3)c(=O)n12 |  | inhibition [6]: inactive; inhibition [7]: inactive; inhibition [8]: Dose-dependent effect; IC50 [9]: 10 µM
